Measurements from patent publication US8236811B2, “Therapeutic use for treating of leukemia” (Sanofi, priority 2006, dated 2012).

Experiments:
Assay type in all cases: in vivo, Scid CB-17 mice
KG1 tumours (AML) = experiment: Antitumor activity in mice bearing KG1 tumours (AML)
Excerpt: (§1) Scid CB-17 mice (supplied by Charles River, Lyon, France) are used. At the time of the randomization, the animals have an average weight of 20-22 g and are aged from 6 to 9 weeks.
(§2) The day before the first administration of a compound, the animals bearing tumors are classified into several groups. Only animals bearing two tumors which are palpable or of determined weight are selected and distributed at random into the treated groups and control groups. Each group is made up of 5 to 10 mice. At the start of the study, each cage is labeled with a card indicating the day of implantation of the tumour, the type of tumour, the compound tested and the mode of administration.
(§3) The implantation of the tumors is effected as follows: after removal of the tumour from the donor mouse, the tumour is cut up into fragments 2 to 3 mm in diameter, placed in a saline phosphate buffer, and implanted bilaterally with an adapted trocar.
(§4) The volume of the tumors and its conversion into weight is estimated according to the formula: weight: (in mg)=(a×b^2)/2, where a and b are respectively the length and the width of the tumour (mm). The tumors are measured twice a week with calipers. In the following tables, P indicates the weight of the tumors at the start of treatment.
Two parameters for estimation of antitumor activity are used: log10 of the cells killed (Log cell kill) and T/C. • Calculation of log10 of the cells killed=(T−C)/3.32×Td, where (T−C) is the delay in tumour growth and Td the volume (and weight) doubling time of the tumour (expressed in days). T is the median time in days for reaching a defined value (e.g. 1000 mg) in the treated group and C is the median time in days for reaching this same value in the control group. A value of log10 of the cells killed>0.7 is indicative of antitumor activity of the molecule. A value of log10 of the cells killed >2.8 is indicative of a very high antitumor activity of the molecule (J Liang et al, Invest New Drugs 2005; 23(3):213-24). • Calculation of T/C: the treated groups and the control groups are evaluated when the tumors of the control group reach approximately 1000 mg (median value of the group). The median weight of the tumors of each treated group is then determined. The T/C value ((weight of the tumors of the treated groups/weight of the tumors of the control groups)×100) in percent is an indication of the antitumor efficacy: a T/C value less than or equal to 42% is indicative of anti-tumour activity according to the American National Cancer Institute (NCI). A T/C value less than 10% is representative of very high anti-tumour activity. • The number of mice no longer displaying tumors a long time after the last administration (TFS=tumour-free survival), and considered as cured, can also constitute a parameter of activity of the molecule. • Evaluation of the toxicity of the compound tested: a weight loss greater than or equal to 20% or the appearance of any lethality in connection with the compound is considered as an excessively toxic treatment. As examples, the results obtained with the compound N-[2-(2,1,3-benzothiadiazol-5-ylamino)-6-(2,6-dichlorophenyl)pyrido[2,3-d]pyrimidin-7-yl]-N′-(1,1-dimethyl-ethyl)-urea are given in the following Tables 1 to 7.
(§5) IV is understood to mean administration by the intravenous route.
The cell line KG-1 (AML) is described by Koeffler et al., Science 200: 1153-1154 (1978), and supplied by DSMZ ACC No. 14.

K562 tumours (CML) = experiment: Antitumor activity in mice bearing K562 tumours (CML); settings: 25 mg/kg/injection IV/IP, days 4-11/12-25, total dose 550 mg/kg
Excerpt: as §1, §2, §3, §4
(§6) Two parameters for estimation of antitumor activity are used: log10 of the cells killed (Log cell kill) and T/C. • Calculation of log10 of the cells killed=(T−C)/3.32×Td, where (T−C) is the delay in tumour growth and Td the volume (and weight) doubling time of the tumour (expressed in days). […] A value of log10 of the cells killed >2.8 is indicative of a very high antitumor activity of the molecule (J Liang et al, Invest New Drugs 2005; 23(3):213-24). • Calculation of T/C: the treated groups and the control groups are evaluated when the tumors of the control group reach approximately 1000 mg (median value of the group). The median weight of the tumors of each treated group is then determined. […]

EOL-1 tumours (AML) = experiment: Antitumor activity in mice bearing EOL-1 tumours (AML); settings: days 8-10, 12-17, 19, total dose 300 mg/kg, P 133-146 mg
Excerpt: as §1
(§7) The day before the first administration of a compound, the animals bearing tumors are classified into several groups. Only animals bearing two tumors which are palpable or of determined weight are selected and distributed at random into the treated groups and control groups. Each group is made up of 5 to 10 mice. At the start of the study, each cage is labeled with a card indicating the day of implantation of the tumour, the type of tumour, the compound tested and the mode of administration. […]
(§8) The volume of the tumors and its conversion into weight is estimated according to the formula: weight: (in mg)=(a×b^2)/2, where a and b are respectively the length and the width of the tumour (mm). The tumors are measured twice a week with calipers. […]
T is the median time in days for reaching a defined value (e.g. 1000 mg) in the treated group and C is the median time in days for reaching this same value in the control group. […] The median weight of the tumors of each treated group is then determined.

KG1a tumors (AML) = experiment: Antitumor activity in mice bearing KG1a tumors (AML)
Excerpt: as §1, §2, §3, §4
(§9) T is the median time in days for reaching a defined value (e.g. 1000 mg) in the treated group and C is the median time in days for reaching this same value in the control group. A value of log10 of the cells killed>0.7 is indicative of antitumor activity of the molecule. […] The median weight of the tumors of each treated group is then determined.
IV/IP is understood to mean administration by the intravenous route followed by an intraperitoneal route; here the transition is effected between day 15 and day 16. IV/oral is understood to mean administration by the intravenous route followed by an oral route; here the transition is effected between day 30 and day 31. […] On day 31, the compound is administered by the oral route until day 44.

CTV1 tumours (AML) = experiment: Antitumor activity in mice bearing CTV1 tumours (AML); settings: 25 mg/kg/injection IV/IP, days 17-23, 25-26/28-32, total dose 350 mg/kg, P 100 mg
Excerpt: as §1, §7, §8
Two parameters for estimation of antitumor activity are used: log10 of the cells killed (Log cell kill) and T/C. • Calculation of log10 of the cells killed=(T−C)/3.32×Td, where (T−C) is the delay in tumour growth and Td the volume (and weight) doubling time of the tumour (expressed in days). […] The median weight of the tumors of each treated group is then determined. […]

Kasumi1 tumours (AML) = experiment: Antitumor activity in mice bearing Kasumi1 tumours (AML); settings: days 25-31, 33, 34, P 178 mg
Excerpt: as §1, §2, §3, §4, §9, §5

CMLT1 tumours (CML) = experiment: Antitumor activity in mice bearing CMLT1 tumours (CML); settings: 20 mg/kg/injection IV/IP, days 3-7/10-14, 17-21, total dose 300 mg/kg
Excerpt: as §1, §2, §3, §4, §6

[1] = 17 mg/kg/injection IV, days 19-38, total dose 255 mg/kg, P 127-130 mg

CC(C)(C)NC(=O)Nc1nc2nc(Nc3ccc4nsnc4c3)ncc2cc1-c1c(Cl)cccc1Cl [N-[2-(2,1,3-benzothiadiazol-5-ylamino)-6-(2,6-dichlorophenyl)pyrido[2,3-d]pyrimidin-7-yl]-N′-(1,1-dimethylethyl)-urea]
T/C at 28 days (KG1 tumours (AML); 17 mg/kg/injection IV, days 19-28, 30, 32, 34, 36, 38, total dose 255 mg/kg, P 127-130 mg, DMSO 5% Tween80 10% H2O 85%): 0%
Log10 cells killed (KG1 tumours (AML); [1]): >6
TFS (tumour-free survival) (KG1 tumours (AML); [1]): (100%)
T/C at 28 days (KG1 tumours (AML); 40 x 2 mg/kg (2 administrations per treatment day) oral, days 18-24, 26, 28, 30, 32, 34, 36, 38, 40, total dose 1200 mg/kg, P 130-132 mg, Labrasol 21% Solutol 5% HCl 0.001N 74%): 0%
Log10 cells killed (KG1 tumours (AML); 40 x 2 mg/kg oral, days 18-40, total dose 1200 mg/kg, P 130-132 mg): 4.3
Log10 cells killed (K562 tumours (CML); P 63-80 mg): 4.2
T/C at 28 days (K562 tumours (CML); P 63-80 mg, DMSO 5% Tween80 10% H2O 85%): 0%
TFS (tumour-free survival) (K562 tumours (CML); on day 130): (43%
T/C at 14 days (EOL-1 tumours (AML); 15 x 2 mg/kg (2 administrations per treatment day) IP, PEG400 22% Solutol 5% G5 73%): 5.7%
Log10 cells killed (EOL-1 tumours (AML); 15 x 2 mg/kg IP): 3.1
T/C at 22 days (KG1a tumors (AML); 17 mg/kg/injection IV/IP, days 5-13, 15/16, 18-20, 22, 24-26, 29, 31, total dose 340 mg/kg, P 91-98 mg, DMSO 5% Tween80 10% H2O 85%): 0%
Log10 cells killed (KG1a tumors (AML); 17 mg/kg/injection IV/IP, days 5-31, total dose 340 mg/kg, P 91-98 mg, DMSO 5% Tween80 10% H2O 85%): >>6
Log10 cells killed (KG1a tumors (AML); 25 mg/kg IV days 22-30 then 40 x 2 mg/kg oral days 31-44, total dose 225/1120 mg/kg, P 1000 mg, DMSO 5% Tween80 10% H2O 85%): >>6
Log10 cells killed (KG1a tumors (AML); 40 x 2 mg/kg (2 administrations per treatment day) oral, days 15-44, total dose 2400 mg/kg, P 147 mg): 3.0
T/C at 22 days (KG1a tumors (AML); 40 x 2 mg/kg (2 administrations per treatment day) oral, days 15-44, total dose 2400 mg/kg, P 147 mg, DMSO 5% Tween80 10% H2O 85%): 14.9%
tumour weight at the end of second treatment period (tumors no longer measurable) (KG1a tumors (AML); after IV days 22-30 (25 mg/kg) then oral route day 31 until day 44, P 1000 mg): < 63 mg
TFS (tumour-free survival) (KG1a tumors (AML); on day 120, 17 mg/kg/injection IV/IP, days 5-31, total dose 340 mg/kg, P 91-98 mg): 80% on
reduction in the tumour weight (KG1a tumors (AML); tumors at very advanced stage (1000 mg), IV route days 22 to 30 at 25 mg/kg): 80%
Log10 cells killed (CTV1 tumours (AML)): 1.7
T/C at 25 days (CTV1 tumours (AML); PEG400 22% Solutol 5% G5 73%): 1.6%
T/C at 28 days (Kasumi1 tumours (AML); 15 x 2 mg/kg (two administrations per treatment day) IV, total dose 255 mg/kg, PEG400 22% Solutol 5% G5 73%): 20%
Log10 cells killed (Kasumi1 tumours (AML); 15 x 2 mg/kg IV, total dose 255 mg/kg): 3
T/C at 28 days (Kasumi1 tumours (AML); 40 x 2 mg/kg (two administrations per treatment day) oral, total dose 680 mg/kg, Labrasol 21% Solutol 5% HCl 0.001N 74%): 17.5%
Log10 cells killed (Kasumi1 tumours (AML); 40 x 2 mg/kg oral, total dose 680 mg/kg): 2.4
Log10 cells killed (CMLT1 tumours (CML); P palpable ~30 mg): 1.5
T/C at 22 days (CMLT1 tumours (CML); P palpable ~30 mg, DMSO 5% Tween80 10% H2O 85%): 1%
TFS (tumour-free survival) (CMLT1 tumours (CML); on day 42): (50%
